From patent US7136698B2 (priority 1996, dated 2006)

Experiment: Current density and goserelin flux: constant current electrotransport delivery
Format: in vivo, human
Protocol: This study was undertaken to evaluate the relationship between current density and drug flux in the transdermal electrotransport delivery of goserelin. The study involved the application of electrotransport devices, applying constant current, to 12 normal male volunteers for a duration of 8 hours.
The two electrotransport treatment regimens in this study differed only in applied current density levels. The electrotransport devices delivered goserelin through the skin from polyvinyl alcohol (PVOH)-based donor hydrogels having a skin-contact surface area of 4 cm^2. The gels contained an aqueous goserelin solution. The current density levels used in this study were […]. After an 8 hour treatment period, the electrotransport devices were removed. The skin site was then washed to remove any residual goserelin. All 12 volunteers received each treatment seven days apart.
For each treatment, seven blood samples were taken over a 24 hour period commencing with the application of current from the electrotransport devices. Serum goserelin concentrations from each patient were used to calculate mean drug flux and the mean total amount of drug delivered.

Structure (SMILES): CC(C)C[C@H](NC(=O)[C@@H](COC(C)(C)C)NC(=O)[C@H](Cc1ccc(O)cc1)NC(=O)[C@H](CO)NC(=O)[C@H](Cc1c[nH]c2ccccc12)NC(=O)[C@H](Cc1cnc[nH]1)NC(=O)[C@@H]1CCC(=O)N1)C(=O)N[C@@H](CCCNC(=N)N)C(=O)N1CCC[C@H]1C(=O)NNC(N)=O [goserelin]
- average transdermal goserelin flux (applied current density 50 μA/cm^2, 8 hours): 5.8 µg/h
- average transdermal goserelin flux (applied current density 100 μA/cm^2, 8 hours): 21.6 µg/h
- increase in drug flux (current density rises from 50 to 100 μA/cm^2): almost four-fold increase
